According to patent EP4289427A1, “DIHYDRO[1,8]NAPHTHYRIDIN-7-ONE AND PYRIDO[3,2-B][1,4]OXAZIN-3-ONE FOR USE IN TREATING CANCER, AND METASTASES IN PARTICULAR” (Anagenesis Biotechnologies, priority 2022, dated 2023):

Legend:
[1] = test system: 4T1 cells; test: Cytotoxicity assay (CellTiter-Glo 2.0) on 4T1 cells; assay type: cell-based, Mouse; conditions: incubation 2 days; for IC50: Mus musculus, 48 h; for Cytotoxicity: test concentration or dose not given here
How it was run: (§1)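 Cells were seeded on day 0 in their own growth medium, then exposed to compounds for a line-dependent period. CellTiter-Glo 2.0 was added and left 10 min in the dark at room temperature, and luminescence from cellular ATP gave viability and relative IC50.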

[2] = test system: HUVECs; test: Tube formation assay (anti-angiogenic activity); assay type: cell-based, human; conditions: incubation 16 to 18 hours; for IC50: Homo sapiens, HUVEC; for Angiogenesis inhibition: test concentration or dose not given here
How it was run: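 HUVECs plated at 5000 cells/well on reduced growth factor basement membrane matrix, then exposed to compounds for 16 to 18 hours at 37°C. Cells stained with calcein-AM; tube networks imaged by confocal fluorescence microscopy and quantified.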

[3] = test system: EoL-1 cells; test: Cytotoxicity assay (CellTiter-Glo 2.0) on EoL-1 cells; assay type: cell-based, Human; conditions: incubation 1 day; for IC50: Homo sapiens, EOL1, 24 h; for Cytotoxicity: test concentration or dose not given here
How it was run: as §1

[4] = test system: MDA-MB-231 cells; test: Cytotoxicity assay (CellTiter-Glo 2.0) on MDA-MB-231 cells; assay type: cell-based, Human; conditions: incubation 3 days; for IC50: Homo sapiens, 72 h; for Cytotoxicity: test concentration or dose not given here
How it was run: as §1

[5] = test system: RD cells; test: Cytotoxicity assay (CellTiter-Glo 2.0) on RD cells; assay type: cell-based, Human; conditions: for IC50: Homo sapiens; for Cytotoxicity: test concentration or dose not given here
How it was run: as §1

SMILES	IC50 [1]	Cytotoxicity [1]	IC50 [2]	Angiogenesis inhibition [2]	IC50 [3]	Cytotoxicity [3]	IC50 [4]	Cytotoxicity [4]	Cytotoxicity ([5]; 2 day-treatment)	Cytotoxicity ([5]; 4 day-treatment)	IC50 ([5]; 48 h, 2 day-treatment)	IC50 ([5]; 96 h, 4 day-treatment)
CSc1cc(Oc2ccnc3c2OCC(=O)N3)ccc1NC(=O)Nc1cc(C(C)(C)C)nn1-c1cccc(CN(C)C)c1 [Compound 041, 1-[5-tert-butyl-2-[3-(dimethylaminomethyl)phenyl]pyrazol-3-yl]-3-[2-methylsulfanyl-4-[(3-oxo-4H-pyrido[3,2-b][1,4]oxazin-8-yl)oxy]phenyl]urea]	< 1000 nM	+++ (cytotoxicity ≥ 85%)	< 100 nM	+++ (angiogenesis inhibition ≥ 80%)	1 to 10 nM	+++ (cytotoxicity ≥ 85%)	1000 to 5000 nM	+++ (cytotoxicity ≥ 85%)	+++ (cytotoxicity ≥ 85%)	+++ (cytotoxicity ≥ 85%)	1000 to 5000 nM	1000 to 5000 nM
CSc1cc(Oc2ccnc3c2CCC(=O)N3)ccc1NC(=O)Nc1cc(C(C)(C)C)nn1-c1ccc(CN2CCOCC2)cc1 [Compound 042, 1-[5-tert-butyl-2-[4-(morpholinomethyl)phenyl]pyrazol-3-yl]-3-[2-methylsulfanyl-4-[(7-oxo-6,8-dihydro-5H-1,8-naphthyridin-4-yl)oxy]phenyl]urea]	< 1000 nM	+++ (cytotoxicity ≥ 85%)	< 100 nM	+++ (angiogenesis inhibition ≥ 80%)	1 to 10 nM	+++ (cytotoxicity ≥ 85%)	1000 to 5000 nM	++ (50% ≤ cytotoxicity < 85%)	++ (50% ≤ cytotoxicity < 85%)	++ (50% ≤ cytotoxicity < 85%)	1000 to 5000 nM	1000 to 5000 nM
CC(C)(C)c1cc(NC(=O)Nc2ccc(Oc3ccnc4c3OCC(=O)N4)cc2C(F)(F)F)n(-c2ccc(CN3CCOCC3)cc2)n1 [Compound 043, 1-[5-tert-butyl-2-[4-(morpholinomethyl)phenyl]pyrazol-3-yl]-3-[4-[(3-oxo-4H-pyrido[3,2-b][1,4]oxazin-8-yl)oxy]-2-(trifluoromethyl)phenyl]urea]	1000 to 5000 nM	+++ (cytotoxicity ≥ 85%)	100 to 500 nM	+++ (angiogenesis inhibition ≥ 80%)	10 to 100 nM	++ (50% ≤ cytotoxicity < 85%)	5000 to 10000 nM	++ (50% ≤ cytotoxicity < 85%)	+ (20 % ≤ cytotoxicity < 50%)	+ (20 % ≤ cytotoxicity < 50%)	≥ 10000 nM	≥ 10000 nM
CC(C)(C)c1cc(NC(=O)Nc2ccc(Oc3ccnc4c3OCC(=O)N4)cc2C(F)(F)F)n(-c2cccc(CN3CCOCC3)c2)n1 [Compound 044, 1-[5-tert-butyl-2-[3-(morpholinomethyl)phenyl]pyrazol-3-yl]-3-[4-[(3-oxo-4H-pyrido[3,2-b][1,4]oxazin-8-yl)oxy]-2-(trifluoromethyl)phenyl]urea]	1000 to 5000 nM	+++ (cytotoxicity ≥ 85%)	100 to 500 nM	+++ (angiogenesis inhibition ≥ 80%)	10 to 100 nM	++ (50% ≤ cytotoxicity < 85%)	5000 to 10000 nM	+ (20 % ≤ cytotoxicity < 50%)	+ (20 % ≤ cytotoxicity < 50%)	+ (20 % ≤ cytotoxicity < 50%)	≥ 10000 nM	≥ 10000 nM
CC(C)(C)c1cc(NC(=O)Nc2ccc(Oc3ccnc4c3CCC(=O)N4)cc2C(F)(F)F)n(-c2cccc(CN3CCOCC3)c2)n1 [Compound 045, 1-[5-tert-butyl-2-[3-(morpholinomethyl)phenyl]pyrazol-3-yl]-3-[4-[(7-oxo-6,8-dihydro-5H-1,8-naphthyridin-4-yl)oxy]-2-(trifluoromethyl)phenyl]urea]	< 1000 nM	+++ (cytotoxicity ≥ 85%)	100 to 500 nM	+++ (angiogenesis inhibition ≥ 80%)	10 to 100 nM	++ (50% ≤ cytotoxicity < 85%)	1000 to 5000 nM	++ (50% ≤ cytotoxicity < 85%)	+ (20 % ≤ cytotoxicity < 50%)	+ (20 % ≤ cytotoxicity < 50%)	5000 to 10000 nM	5000 to 10000 nM
CSc1cc(Oc2ccnc3c2CCC(=O)N3)ccc1NC(=O)Nc1cc(C(C)(C)C)nn1-c1ccc(CN(C)C)cc1 [Compound 046, 1-[5-tert-butyl-2-[4-(dimethylaminomethyl)phenyl]pyrazol-3-yl]-3-[2-methylsulfanyl-4-[(7-oxo-6,8-dihydro-5H-1,8-naphthyridin-4-yl)oxy]phenyl]urea]	< 1000 nM	+++ (cytotoxicity ≥ 85%)	< 100 nM	+++ (angiogenesis inhibition ≥ 80%)	< 1 nM	+++ (cytotoxicity ≥ 85%)	1000 to 5000 nM	+++ (cytotoxicity ≥ 85%)	+++ (cytotoxicity ≥ 85%)	+++ (cytotoxicity ≥ 85%)	5000 to 10000 nM	1000 to 5000 nM
CSc1cc(Oc2ccnc3c2CCC(=O)N3)ccc1NC(=O)Nc1cc(C(C)(C)C)nn1-c1cccc(CN2CCOCC2)c1 [Compound 047, 1-[5-tert-butyl-2-[3-(morpholinomethyl)phenyl]pyrazol-3-yl]-3-[2-methylsulfanyl-4-[(7-oxo-6,8-dihydro-5H-1,8-naphthyridin-4-yl)oxy]phenyl]urea]	< 1000 nM	+++ (cytotoxicity ≥ 85%)	< 100 nM	+++ (angiogenesis inhibition ≥ 80%)	1 to 10 nM	+++ (cytotoxicity ≥ 85%)	1000 to 5000 nM	++ (50% ≤ cytotoxicity < 85%)	++ (50% ≤ cytotoxicity < 85%)	++ (50% ≤ cytotoxicity < 85%)	5000 to 10000 nM	1000 to 5000 nM
CN(C)Cc1cccc(-n2nc(C(C)(C)C)cc2NC(=O)Nc2ccc(Oc3ccnc4c3OCC(=O)N4)cc2C(F)(F)F)c1 [Compound 048, 1-[5-tert-butyl-2-[3-(dimethylaminomethyl)phenyl]pyrazol-3-yl]-3-[4-[(3-oxo-4H-pyrido[3,2-b][1,4]oxazin-8-yl)oxy]-2-(trifluoromethyl)phenyl]urea]	1000 to 5000 nM	+++ (cytotoxicity ≥ 85%)	100 to 500 nM	+++ (angiogenesis inhibition ≥ 80%)	1 to 10 nM	++ (50% ≤ cytotoxicity < 85%)	1000 to 5000 nM	++ (50% ≤ cytotoxicity < 85%)	++ (50% ≤ cytotoxicity < 85%)	+++ (cytotoxicity ≥ 85%)	5000 to 10000 nM	1000 to 5000 nM
CN(C)Cc1ccc(-n2nc(C(C)(C)C)cc2NC(=O)Nc2ccc(Oc3ccnc4c3OCC(=O)N4)cc2C(F)(F)F)cc1 [Compound 049, 1-[5-tert-butyl-2-[4-(dimethylaminomethyl)phenyl]pyrazol-3-yl]-3-[4-[(3-oxo-4H-pyrido[3,2-b][1,4]oxazin-8-yl)oxy]-2-(trifluoromethyl)phenyl]urea]	1000 to 5000 nM	+++ (cytotoxicity ≥ 85%)	100 to 500 nM	+++ (angiogenesis inhibition ≥ 80%)	10 to 100 nM	++ (50% ≤ cytotoxicity < 85%)	5000 to 10000 nM	+++ (cytotoxicity ≥ 85%)	+++ (cytotoxicity ≥ 85%)	+++ (cytotoxicity ≥ 85%)	5000 to 10000 nM	5000 to 10000 nM
CSc1cc(Oc2ccnc3c2CCC(=O)N3)ccc1NC(=O)Nc1cc(C(C)(C)C)nn1-c1cccc(CN(C)C)c1 [Compound 050, 1-[5-tert-butyl-2-[3-(dimethylaminomethyl)phenyl]pyrazol-3-yl]-3-[2-methylsulfanyl-4-[(7-oxo-6,8-dihydro-5H-1,8-naphthyridin-4-yl)oxy]phenyl]urea]	< 1000 nM	+++ (cytotoxicity ≥ 85%)	< 100 nM	+++ (angiogenesis inhibition ≥ 80%)	1 to 10 nM	+++ (cytotoxicity ≥ 85%)	1000 to 5000 nM	+++ (cytotoxicity ≥ 85%)	+++ (cytotoxicity ≥ 85%)	+++ (cytotoxicity ≥ 85%)	1000 to 5000 nM	1000 to 5000 nM
CSc1cc(Oc2ccnc3c2OCC(=O)N3)ccc1NC(=O)Nc1cc(C(C)(C)C)nn1-c1ccc(CCN(C)C)cc1 [Compound 051, 1-[5-tert-butyl-2-[4-[2-(dimethylamino)ethyl]phenyl]pyrazol-3-yl]-3-[2-methylsulfanyl-4-[(3-oxo-4H-pyrido[3,2-b][1,4]oxazin-8-yl)oxy]phenyl]urea]	1000 to 5000 nM	+++ (cytotoxicity ≥ 85%)	< 100 nM	+++ (angiogenesis inhibition ≥ 80%)	1 to 10 nM	+++ (cytotoxicity ≥ 85%)	1000 to 5000 nM	+++ (cytotoxicity ≥ 85%)	+++ (cytotoxicity ≥ 85%)	+++ (cytotoxicity ≥ 85%)	1000 to 5000 nM	1000 to 5000 nM
